Patent publication US20070259428A1, “Use of Cloud Point System in Biotransformation” (Shanghai Health Creation Center for Biopharmaceutical R&D …, priority 2003, published 2007)

Assays:
[1] = TLC analysis of distribution of substrate and product in CPS; format: physicochemical; conditions: FIG. 4
Experimental: TLC analysis was performed to determine the distribution of substrate and products in CPS, using Silica gel 60 F254 (Merck) high-performance thin layer chromatography plates which is developed in Chloroform:ether (1:3) followed by soaking in phosphornolybdic acid solution and drying by heat. Substrate and products were separated, with their Rf values of cholesterol, a-AD and ADD being 0.62, 0.47, and 0.42, respectively.
By TLC analysis, the partition of substrate and product in CPS is viewed in FIG. 4. […] Partition of cells between the two phases is determined with hemocytometry. Its partition coefficient between the coacervate phase and the dilute phase is roughly 10, indicating the surface of Mycobacterium sp. is rather hydrophobic. This is in compliance with the report that Mycobacterium is a hydrophobic microbe.

[2] = cited from earlier work
[3] = cloud point; cited from earlier work
[4] = tested on: Mycobacterium sp. NRRL B 3683; test: Screening of nonionic surfactant: biocompatibility or potential toxicity to the microorganism, by final ADD concentration in surfactant-amended transformation medium; format: cell-based; conditions: high concentration of surfactant (2.0 g/100 ml), 28° C., 7 days
Experimental: Microbial strain, Mycobacterium sp. NRRL B 3683, is preserved in Shanghai Health Creation Center for Biopharmaceuticals R&D. It is able to remove the side chain of cholesterol, giving out ADD and 4-AD as final products, at a ratio of ca. 10:1.
Transformation medium (100 ml): (NH4)SO4 1.0 g, Na2HPO4 0.45 g, KH2PO4 0.34 g, MgSO4.7H2O 0.2 g, cholesterol 0.5 g, nonionic surfactant 2.0 g
The seed culture was grown aerobically at 28° C. at 220 r/min for 3 days with 20 ml of medium in a 250 ml Erlenmeyer flask. The seed culture was then transferred by 10% into 22 ml of transformation medium in a 250 ml Erlenmeyer flask, which was then shaken at 28° C. at 220 r/min for 7 days. A portion of the well-mixed transformation culture broth was withdrawn for analysis.
1 ml of sample was withdrawn from culture broth and extracted with 4 ml of methanol for 2 hrs, followed by centrifugation. 0.8 ml of supernatant was taken for HPLC analysis. Hypesil C18 column using methanol:water (4:1) as mobile phase, flow rate of 0.7 ml/min, and detection wavelength at 254 nm were applied.
For selecting appropriate medium of microbial transformation, biocompatibility or potential toxicity of surfactant to microorganism is critical.

[5] = footnote a: mg/L; cited from earlier work

With `C[C@]12C=CC(=O)C=C1CC[C@@H]1[C@@H]2CC[C@]2(C)C(=O)CC[C@@H]12` [ADD] the “partition in CPS (dilute phase vs coacervate phase)” value [1] was “based in the coacervate phase”.
In the case of `CC(C)CCC[C@@H](C)[C@H]1CC[C@H]2[C@@H]3CC=C4C[C@@H](O)CC[C@]4(C)[C@H]3CC[C@]12C` [cholesterol], the solubility in water [2] is given as “below 1 μM”.
In the case of Triton X-100, the CP [3] is given as 64 °C and the “biocompatibility with the microorganism” value [4] is given as “incompatible with the microorganism”.
In the case of Tween 40, the CMC [5] is listed as 29^a mg/L.
In the case of Tween 60, the CMC [5] is listed as 27^a mg/L.
